Measurements reported in paper PMC5578959, “Selective LRRK2 kinase inhibition reduces phosphorylation of endogenous Rab10 and Rab12 in human peripheral mononuclear blood cells” (Scientific Reports, 2017).
Like-named read-outs stand apart in the source and are kept apart here.

Assays:
RAB10 = assay: Phosphoproteomic analysis, immune stimulated human PBMCs; assay type: cell-based; details: 100 nM, 24 hrs
Protocol: (§1) Freshly isolated PBMCs were plated at a density ranging from 7–20 × 10^6 cells in 10 cm petri dishes (Costar 3262) in RPMI-1640 media (Gibco 61870–010) supplemented with 10% non-heat inactivated FBS, 5 ml Antimycotic (Sigma cat:5965) with or without an immune stimulation cocktail consisting of 400 nM phorbol 12-myristate 13-acetate (PMA) and 100 ng/ml interferon-γ (INF-γ). After 48 hrs in culture the cultures were added a fifth of the volume media containing 5x the final concentration of the respective LRRK2 inhibitor with or without PMA and interferon-γ. […] Approximately, 400 µg of protein from each individual donor was needed in order to run the full PBMC stimulation and inhibition study with subsequent global proteome and phosphoproteome (PhosphoScout®) analyses. […]
(§2) Upon the respective treatments cells were washed with cold PBS, snap-frozen in liquid N2 and shipped to Evotec on dry-ice. […] Cell lysis was performed in ice-cold lysis buffer (8 M urea, 50 mM Tris pH 8.2, 10 mM sodium pyrophosphate, 5 mM EDTA, 5 mM EGTA, 10 mM sodium fluoride, 10 mM β-glycerophosphate, 10 mM sodium orthovanadate, phosphatase inhibitor cocktail 2 and 3 (Sigma, 1:100 (v/v)) and Complete protease inhibitor cocktail tablets (Roche). Cell extracts were sonicated on ice and the cell debris was removed by centrifugation before protein concentrations were determined (Bradford, BioRad). […]

RAB12 = assay: as above; assay type: cell-based; details: 100 nM, 24 hrs
Protocol: as §1, §2

LRRK2 = assay: Global proteome analysis, immune stimulated human PBMCs; assay type: cell-based; details: 100 nM, 24 hrs, not statistically significant (q-value: 0.08)
Protocol: as §1, §2

[1] = test system: Regulator of telomere elongation helicase 1 (RTEL1); assay: as above; assay type: cell-based; details: 100 nM, 24 hrs
Protocol: as §1, §2

ATR = test system: T1, ATR; assay: KiNativ profiling in human PBMCs; assay type: binding; details: ATP
T1 construct: purchased ActivX Technologies (KiNativ)

CK2a1 = test system: T2, CK2a1; assay: KiNativ profiling in human PBMCs; assay type: binding; details: Protein Kinase Domain
T2 construct: purchased ActivX Technologies (KiNativ)

COT = test system: T3, COT; assay: KiNativ profiling in human PBMCs; assay type: binding; details: ATP Loop
T3 construct: purchased ActivX Technologies (KiNativ)

FYN = test system: T4, FYN; assay: KiNativ profiling in human PBMCs; assay type: binding; details: Lys1
T4 construct: purchased ActivX Technologies (KiNativ)

ITK = test system: T5, ITK; assay: KiNativ profiling in human PBMCs; assay type: binding; details: Activation Loop
T5 construct: purchased ActivX Technologies (KiNativ)

MAP2K2 = test system: T6, MAP2K2; assay: KiNativ profiling in human PBMCs; assay type: binding; details: Lys2
T6 construct: purchased ActivX Technologies (KiNativ)

MARK3, MARK4 = assay: KiNativ profiling in human PBMCs; assay type: binding; details: Lys1
MARK4 = test system: T7, MARK4; assay: KiNativ profiling in human PBMCs; assay type: binding; details: Lys2
T7 construct: purchased ActivX Technologies (KiNativ)

MPSK1 = test system: T8, MPSK1; assay: KiNativ profiling in human PBMCs; assay type: binding; details: Lys1
T8 construct: purchased ActivX Technologies (KiNativ)

PEK = test system: T9, PEK; assay: KiNativ profiling in human PBMCs; assay type: binding; details: Lys2
T9 construct: purchased ActivX Technologies (KiNativ)

PHKg2 = test system: T10, PHKg2; assay: KiNativ profiling in human PBMCs; assay type: binding; details: Lys1
T10 construct: purchased ActivX Technologies (KiNativ)

PI4KA, PI4KAP2 = assay: KiNativ profiling in human PBMCs; assay type: binding; details: ATP
PIP4K2B = test system: T11, PIP4K2B; assay: KiNativ profiling in human PBMCs; assay type: binding; details: ATP
T11 construct: purchased ActivX Technologies (KiNativ)

PKCd = test system: T12, PKCd; assay: KiNativ profiling in human PBMCs; assay type: binding; details: Lys2
T12 construct: purchased ActivX Technologies (KiNativ)

PKD1, PKD2 = assay: KiNativ profiling in human PBMCs; assay type: binding; details: Lys2
PKD3 = test system: T13, PKD3; assay: KiNativ profiling in human PBMCs; assay type: binding
T13 construct: purchased ActivX Technologies (KiNativ)

CHED = details: Lys2

Cc1cccc(-c2cc(Nc3ccn(C)n3)nc3[nH]cc(C#N)c23)c1 [Lu AF58786]
reduced level of phosphorylation, Thr73 on Rab10 (RAB10): approximately 2 fold
reduced level of phosphorylation, Ser106 on Rab12 (RAB12): approximately 2 fold
LRRK2 down-regulated on the protein level (LRRK2): approximately 1.7 fold
RTEL1 expression level downregulated [1]: 2 fold

Cn1cc(-c2c[nH]c3ncnc(N4CCOCC4)c23)cc1C#N [PFE-360]
% Inhibition (ATR; 0.1µM): -25.8%
% Inhibition (ATR; 1µM): 10.7%
% Inhibition (CK2a1; 0.1µM): -27.7%
% Inhibition (CK2a1; 1µM): -26.5%
% Inhibition (COT; 0.1µM): 26.3%
% Inhibition (COT; 1µM): 7.7%
% Inhibition (FYN; 0.1µM): -23.9%
% Inhibition (FYN; 1µM): -19%
% Inhibition (ITK; 0.1µM): 3.5%
% Inhibition (ITK; 1µM): -4.7%
% Inhibition (MAP2K2; 0.1µM): -11.4%
% Inhibition (MAP2K2; 1µM): 20.4%
% Inhibition (MARK3, MARK4; 0.1µM): 0.7%
% Inhibition (MARK3, MARK4; 1µM): 3.6%
% Inhibition (MARK4; 0.1µM): 14.8%
% Inhibition (MARK4; 1µM): -6.1%
% Inhibition (MPSK1; 0.1µM): 5.5%
% Inhibition (MPSK1; 1µM): -27.6%
% Inhibition (PEK; 0.1µM): 10.6%
% Inhibition (PEK; 1µM): 17.3%
% Inhibition (PHKg2; 0.1µM): -21.5%
% Inhibition (PHKg2; 1µM): -15.8%
% Inhibition (PI4KA, PI4KAP2; 0.1µM): -6%
% Inhibition (PI4KA, PI4KAP2; 1µM): 4.4%
% Inhibition (PIP4K2B; 0.1µM): 6.9%
% Inhibition (PIP4K2B; 1µM): 22.6%
% Inhibition (PKCd; 0.1µM): 3.5%
% Inhibition (PKCd; 1µM): -0.6%
% Inhibition (PKD1, PKD2; 0.1µM): 13.1%
% Inhibition (PKD1, PKD2; 1µM): -5.9%
% Inhibition (PKD3; 0.1µM, Lys1): 1.2%
% Inhibition (PKD3; 0.1µM, Lys2): 17.6%
% Inhibition (PKD3; 1µM, Lys1): -10.7%
% Inhibition (PKD3; 1µM, Lys2): -1.1%
% Inhibition (CHED; 0.1µM): 4.9%
% Inhibition (CHED; 1µM): -1.5%
